Data from patent US20200071310A1, “N-ARYL PYRAZOLES AS NRF2 REGULATORS” (GLAXOSMITHKLINE INTELLECTUAL PROPERTY DEVELOPMENT LIMITED, priority 2016, published 2020).
Where two headings read alike, the source gives them in different places.

How the values were obtained:
[1] = system: NQO1 specific enzyme activity in BEAS-2B cells; test: BEAS-2B NQO1 MTT Assay; assay type: cell-based; details: Homo sapiens
Description: NAD(P)H:quinone oxidoreductase 1 (NQO1), also called DT diaphorase, is a homodimeric FAD-containing enzyme that catalyzes obligatory NAD(P)H-dependent two-electron reductions of quinones and protects cells against the toxic and neoplastic effects of free radicals and reactive oxygen species arising from one-electron reductions. The transcription of NQO1 is finely regulated by NRF2, and thus NQO1 activity is a good marker for NRF2 activation. On day one, frozen BEAS-2B cells (ATCC) were thawed in a water bath, counted, and re-suspended at a concentration of 250,000 cells/mL. Fifty microliters of cells were plated in 384 well black clear-bottomed plates. Plates were incubated at 37° C., 5% CO2 overnight. On day two, plates were centrifuged and 50 nL of compound or controls were added to the cells. Plates were then incubated at 37° C., 5% CO2 for 48 hours. On day four, medium was aspirated from the plate and crude cell lysates were made by adding 13 uL of 1× Cell Signaling Technologies lysis buffer with 1 Complete, Mini, EDTA-free Protease Inhibitor Tablet (Roche) for each 10 mL of lysis buffer. After lysis plates were incubated for 20 minutes at room temperature. Two microliters of lysate were removed for use in Cell Titer Glo assay (Promega) and MTT cocktail was prepared (Prochaska et. al. 1998) for measurement of NQO1 activity. Fifty microliters of MTT cocktail is added to each well, plate is centrifuged, and analyzed on an Envision plate reader (Perkin Elmer) using Absorbance 570 nm label for 30 minutes. Product formation was measured kinetically and the pEC50 of NQO1 specific activity induction was calculated by plotting the change in absorbance (Delta OD/min) versus the log of compound concentration followed by 3-parameter fitting. pEC50 is the negative log of the EC50.

[2] = target: T1, full length Keap1 protein / full length NRF2 protein (Homo sapiens, UniProt Q14145); test: NRF2-Keap1 TR-FRET Low Protein Assay; assay type: binding
T1 construct: full length NRF2 protein and full length Keap1 protein (Keap1 exists a dimer) are used; His
Description: In the NRF2-Keap1 TR-FRET (time-resolved fluorescence resonance energy transfer) low protein assay, full length NRF2 protein and full length Keap1 protein (Keap1 exists a dimer) are used. The assay detects a compound's ability to displace the binding of Keap1 FlagHis with biotinylated Avi-NRF2 protein. Biotin-NRF2 binds to streptavidin-europium (a component of the detection mix) and Keap1 FlagHis is recognized by anti-Flag APC (allophycocyanin) antibody (also a component of the detection mix). If binding occurs between the two proteins, there will be an energy transfer from the Eu+3 (donor) at 615 nm to the APC (acceptor) at 665 nm. A potential NRF2 inhibitor will cause a reduction in the TR-FRET signal by interfering with the binding of Keap1 to NRF2.
Ten nanoliters of 100× compound dose response curves (serial 3-fold dilutions) in DMSO were stamped using an Echo liquid handling system (Labcyte) into 384-well, low volume, black assay plates (Greiner, #784076), with DMSO in columns 6 and 18. An additional 90 nl DMSO was added to each well, to bring the total volume to 100 nl per well. The top concentration of compound was located in columns 1 and 13, with the serial dilutions going across the row. All reagents were diluted in assay buffer (50 mM Tris, pH 8.0, 5 mM MgCl2, 100 mM NaCl, 0.005% BSA, 1 mM DTT, and 2 mM CHAPS. The BSA, DTT, and CHAPS were added to the assay buffer on the day of assay. Using a Multidrop Combi (Thermo Electron Corporation) equipped with a metal tip dispenser, 5 ul of 1.25 nM Keap1 FlagHis protein was added to all wells of the compound plate, with the exception of the wells in column 18. Wells in column 18 received 5 ul of assay buffer instead. Plates were centrifuged at 500 rpm for 1 minute, covered with a plate lid, and incubated at 37° C. for 2.25 hours. Plates were then removed from the incubator and allowed to cool to RT for 15 minutes. Five microliters of 2.5 nM biotin-NRF2 protein was then added to all wells of the plates and the plates were spun at 500 rpm for 1 minute, followed by incubating at 4° C. for 1.25 hours. The plates were then allowed to warm to RT for 15 minutes, followed by the addition of 10 ul of detection mix (1 nM Streptavidin Eu+W1024 and 5 ug/ml mouse anti-DYKDDDDK IgG conjugated to SureLight APC antibody; both from Columbia Biosciences) to all wells. Plates were spun at 500 rpm for 1 minute, incubated for 1 hour at RT, and read on an Envision plate reader using a 320 nm excitation filter and 615 nm and 665 nm emission filters. Compound response (% inhibition) and potency (pIC50) were calculated based on the ratio of the two emissions (665 nm/615 nm) and then the transformed data was normalized against controls in the assay (control 1=1% DMSO in the presence of NRF2 and Keap1 protein and control 2=1% DMSO in the presence of only the NRF2 protein). Data analysis was handled using the software package Abase XE (Surrey, United Kingdom). The % inhibition values were calculated from the ratio (transformed) data by the equation:
100−(100*(compound response−average control 2)/(average control 1−average control2)).
For calculation of pIC50s, Abase XE used a four parameter equation.
IC50s<10 nM (+++++), IC50s 10-100 nM (++++), IC50s 100 nM-1 uM (+++), IC50s 1-10 uM (++). and IC50s 10 uM-100 uM (+), IC50s>100 uM (−), or were not determined (ND).

[3] = NQO1 specific activity induction, BEAS-2B cells, 48 hours, read-out: EC50

T1 sequence (Q14145 whole entry): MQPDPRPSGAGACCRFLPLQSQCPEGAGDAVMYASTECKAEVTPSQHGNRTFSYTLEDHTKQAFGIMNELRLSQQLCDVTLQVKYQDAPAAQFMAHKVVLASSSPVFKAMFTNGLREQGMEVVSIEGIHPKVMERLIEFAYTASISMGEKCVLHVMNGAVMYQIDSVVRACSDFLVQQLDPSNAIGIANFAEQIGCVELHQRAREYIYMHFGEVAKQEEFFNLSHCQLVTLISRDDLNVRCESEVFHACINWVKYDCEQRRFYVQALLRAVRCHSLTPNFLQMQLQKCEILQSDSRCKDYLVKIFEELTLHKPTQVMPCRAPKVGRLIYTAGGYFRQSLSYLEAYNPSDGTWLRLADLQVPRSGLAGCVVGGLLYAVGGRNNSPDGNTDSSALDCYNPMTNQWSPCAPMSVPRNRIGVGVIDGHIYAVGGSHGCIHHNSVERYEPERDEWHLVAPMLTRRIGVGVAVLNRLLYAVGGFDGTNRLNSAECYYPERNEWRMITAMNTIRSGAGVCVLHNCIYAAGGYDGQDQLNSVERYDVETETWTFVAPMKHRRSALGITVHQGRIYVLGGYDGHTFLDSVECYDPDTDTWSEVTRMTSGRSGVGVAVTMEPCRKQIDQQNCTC

Row | SMILES | EC50 [1, 3] [µM] | EC50 [2] [µM] | EC50 ([1]; BEAS-2B, 48 h) [µM]
1 | C[C@H]1Cc2ccc(Br)cc2S(=O)(=O)N(Cc2cccc(-n3ncc(C(=O)O)c3[C@@H]3C[C@H]3c3cn(C)nn3)c2)C1 (racemic) [Example 17, 1-(3-((8-bromo-4-methyl-1,1-dioxido-4,5-dihydrobenzo[f][1,2]thiazepin-2(3H)-yl)methyl)phenyl)-5-((trans)-2-(1-methyl-1H-1,2,3-triazol-4-yl)cyclopropyl)-1H-pyrazole-4-carboxylic acid] | 0.1 to 1 | 0.01 to 0.1 | 
2 | CN(Cc1cccc(-n2ncc(C(=O)O)c2[C@@H]2C[C@H]2c2cn(C)nn2)c1)S(=O)(=O)c1cccc2cccnc12 (racemic) [Example 51, 5-((trans)-2-(1-methyl-1H-1,2,3-triazol-4-yl)cyclopropyl)-1-(3-((N-methylquinoline-8-sulfonamido)methyl)phenyl)-1H-pyrazole-4-carboxylic acid] | 0.1 to 1 | 1 to 10 | 
3 | CC[C@@H]1CN(Cc2cc(-n3ncc(C(=O)O)c3C3C[C@H]3c3cn(C)nn3)ccc2C)S(=O)(=O)c2ccccc2O1 (some centres unmarked) [Example 25] | 1 to 10 | 0.01 to 0.1 | 
4 | CC[C@H]1Cc2ccc(C(F)(F)F)cc2S(=O)(=O)N(Cc2cccc(-n3ncc(C(=O)O)c3[C@@H]3C[C@H]3c3cn(C)nn3)c2)C1 [Example 20, 1-(3-(((S)-4-ethyl-1,1-dioxido-8-(trifluoromethyl)-4,5-dihydrobenzo[f][1,2]thiazepin-2(3H)-yl)methyl)phenyl)-5-((1R,2R)-2-(1-methyl-1H-1,2,3-triazol-4-yl)cyclopropyl)-1H-pyrazole-4-carboxylic acid] | 0.001 to 0.01 | < 0.01 | 
5 | CC[C@@H]1CN(Cc2cccc(-n3ncc(C(=O)O)c3[C@@H]3C[C@H]3c3cnn(C)c3)c2)S(=O)(=O)c2ccccc2O1 [Example 31, 1-(3-(((R)-4-ethyl-1,1-dioxido-3,4-dihydro-2H-benzo[b][1,4,5]oxathiazepin-2-yl)methyl)-phenyl)-5-(trans-2-(1-methyl-1H-pyrazol-4-yl)cyclopropyl)-1H-pyrazole-4-carboxylic acid] | 1 to 10 | 1 to 10 | 
6 | C[C@@H]1Cc2cc(C(F)(F)F)ccc2S(=O)(=O)N(Cc2cccc(-n3ncc(C(=O)O)c3[C@@H]3C[C@H]3c3cn(C)nn3)c2)C1 (racemic) [Example 18, 1-(3-((4-methyl-1,1-dioxido-7-(trifluoromethyl)-4,5-dihydro-benzo[f][1,2]thiazepin-2(3H)-yl)methyl)phenyl)-5-((trans)-2-(1-methyl-1H-1,2,3-triazol-4-yl)cyclopropyl)-1H-pyrazole-4-carboxylic acid] | 0.01 to 0.1 | 0.01 to 0.1 | 
7 | COc1ccccc1S(=O)(=O)N(C)Cc1cccc(-n2ncc(C(=O)O)c2[C@@H]2C[C@H]2c2cn(C)nn2)c1 (racemic) [Example 47, 1-(3-((2-methoxy-N-methylphenylsulfonamido)methyl)phenyl)-5-((trans)-2-(1-methyl-1H-1,2,3-triazol-4-yl)cyclopropyl)-1H-pyrazole-4-carboxylic acid] | 0.01 to 0.1 | 1 to 10 | 
8 | CCOc1ccccc1S(=O)(=O)N(C)Cc1cccc(-n2ncc(C(=O)O)c2[C@@H]2C[C@H]2c2cn(C)nn2)c1 (racemic) [Example 45, 1-(3-((2-ethoxy-N-methylphenylsulfonamido)methyl)phenyl)-5-((trans)-2-(1-methyl-1H-1,2,3-triazol-4-yl)cyclopropyl)-1H-pyrazole-4-carboxylic acid] | 1 to 10 | 1 to 10 | 
9 | COc1ccccc1S(=O)(=O)N(C)C1CCc2ccc(-n3ncc(C(=O)O)c3[C@@H]3C[C@H]3c3cn(C)nn3)cc21 (stereo partly drawn) [Example 27, 1-(3-(2-methoxy-N-methylphenylsulfonamido)-2,3-dihydro-1H-inden-5-yl)-5-((1R,2R)-2-(1-methyl-1H-1,2,3-triazol-4-yl)cyclopropyl)-1H-pyrazole-4-carboxylic acid] | 0.1 to 1 | 10 to 100 | 
10 | CC[C@@H]1CN(Cc2cccc(-n3ncc(C(=O)O)c3[C@@H]3C[C@H]3c3cn(C)nn3)c2)Cc2ccccc2O1 (racemic) [Example 14] |  | 1 to 10 | 1 to 10
